# Key:
# [1] = tested on: explants from petioles of cyclamen (species: Flamenco); test: Culture of explants from petioles (comparative); format: cell-based; details: NAA 0.05 mg/l, 20 explants planted, 30 days
# Description: For comparison, the explants from leaves and petioles of cyclamen (species: Flamenco) were cultured for 30 days by changing the contents of BA and sucrose in a basal medium prepared by adding 0.05 mg/l of NAA and 6 g/l of agar to the ⅓ MS medium and having a pH of 7.0. In all the cases, the root tubers were hardly enlarged by culture and rarely regenerated and accordingly, a clonal plant could not be obtained with high reproducibility.
# [2] = tested on: cyclamen (cultivar: Dressy Scarlet) seedling; test: Growth of root tubers at cut root ends of seedlings in solid media; format: in vivo; details: 30-th day
# Description: A cyclamen (cultivar: Dressy Scarlet) seed was immersed in an ethyl alcohol aqueous solution having an ethyl alcohol concentration of 70 wt % for 10 seconds and in a sodium hypochlorite solution having an effective chlorine concentration of 1 wt % for 10 minutes to sterilize the surface of the seed. Thereafter, this seed was washed in sterilized water 3 times to remove the sodium hypochlorite from the surface of the seed. This was sown in an MS solid medium containing 30 g/l of sucrose and 6 g/l of agar under a germ-free condition and cultured at a temperature of 20° C. under weak light for 30 days to be germinated and rooted.
# The end portions of the roots of the above germinated and rooted cyclamen seedling were cut off with a scalpel, and the seedling was planted in the following solid media. As the media, a large number of experimental plots were prepared by adding NAA and BA as phytohormones to the ⅓ MS medium in concentrations shown in Tables 1 to 3 and further adding 30 to 90 g/l of sucrose. 6 g/l of agar was added to all of the media which were then sterilized in an autoclave to prepare media having a pH of 7.0. 10 ml of each of the solid media was placed in a 50 ml culture test tube. The stationary culture of the seedling planted in each of the media was carried out at 20° C. under weak light for a certain number of days to grow root tubers at the end portions of its roots.
# [3] = sucrose 30 g/l, BA 0.1 mg/l, NAA 0.00 mg/l
# [4] = sucrose 30 g/l, BA 0.1 mg/l, NAA 0.01 mg/l
# [5] = sucrose 30 g/l, BA 0.1 mg/l, NAA 0.05 mg/l
# [6] = sucrose 30 g/l, BA 1.0 mg/l, NAA 0.00 mg/l
# [7] = sucrose 30 g/l, BA 1.0 mg/l, NAA 0.01 mg/l
smiles,measurement,setting,value
"c1ccc(CNc2ncnc3[nH]cnc23)cc1 [BA, benzylaminopurine]",Number of enlarged explants,"[1]; BA 0.05 mg/l, sucrose 30 g/m",2
same,Number of regenerate explants,"[1]; BA 0.05 mg/l, sucrose 30 g/m",0
same,Number of enlarged explants,"[1]; BA 0.05 mg/l, sucrose 50 g/m",1
same,Number of regenerate explants,"[1]; BA 0.05 mg/l, sucrose 50 g/m",0
same,Number of enlarged explants,"[1]; BA 0.05 mg/l, sucrose 70 g/m",1
same,Number of regenerate explants,"[1]; BA 0.05 mg/l, sucrose 70 g/m",0
same,Number of enlarged explants,"[1]; BA 0.05 mg/l, sucrose 90 g/m",0
same,Number of regenerate explants,"[1]; BA 0.05 mg/l, sucrose 90 g/m",0
same,Number of enlarged explants,"[1]; BA 0.1 mg/l, sucrose 30 g/m",4
same,Number of regenerate explants,"[1]; BA 0.1 mg/l, sucrose 30 g/m",4
same,Number of enlarged explants,"[1]; BA 0.1 mg/l, sucrose 50 g/m",5
same,Number of regenerate explants,"[1]; BA 0.1 mg/l, sucrose 50 g/m",1
same,Number of enlarged explants,"[1]; BA 0.1 mg/l, sucrose 70 g/m",2
same,Number of regenerate explants,"[1]; BA 0.1 mg/l, sucrose 70 g/m",0
same,Number of enlarged explants,"[1]; BA 0.1 mg/l, sucrose 90 g/m",1
same,Number of regenerate explants,"[1]; BA 0.1 mg/l, sucrose 90 g/m",0
same,Number of enlarged explants,"[1]; BA 0.5 mg/l, sucrose 30 g/m",3
same,Number of regenerate explants,"[1]; BA 0.5 mg/l, sucrose 30 g/m",1
same,Number of enlarged explants,"[1]; BA 0.5 mg/l, sucrose 50 g/m",4
same,Number of regenerate explants,"[1]; BA 0.5 mg/l, sucrose 50 g/m",1
same,Number of enlarged explants,"[1]; BA 0.5 mg/l, sucrose 70 g/m",1
same,Number of regenerate explants,"[1]; BA 0.5 mg/l, sucrose 70 g/m",0
same,Number of enlarged explants,"[1]; BA 0.5 mg/l, sucrose 90 g/m",0
same,Number of regenerate explants,"[1]; BA 0.5 mg/l, sucrose 90 g/m",0
same,Number of enlarged explants,"[1]; BA 1 mg/l, sucrose 30 g/m",1
same,Number of regenerate explants,"[1]; BA 1 mg/l, sucrose 30 g/m",0
same,Number of enlarged explants,"[1]; BA 1 mg/l, sucrose 50 g/m",1
same,Number of regenerate explants,"[1]; BA 1 mg/l, sucrose 50 g/m",10
same,Number of enlarged explants,"[1]; BA 1 mg/l, sucrose 70 g/m",0
same,Number of regenerate explants,"[1]; BA 1 mg/l, sucrose 70 g/m",0
same,Number of enlarged explants,"[1]; BA 1 mg/l, sucrose 90 g/m",0
same,Number of regenerate explants,"[1]; BA 1 mg/l, sucrose 90 g/m",0
same,Number of grown root tubers,"[2]; BA 0.0 mg/l, sucrose 30 g/l, NAA 0.05 mg/l, 23 roots cut off",23
same,Enlarging ratio (diameter of root tuber vs root at start = 1),"[2]; BA 0.0 mg/l, sucrose 30 g/l, NAA 0.05 mg/l",8.4
same,Number of grown root tubers,"[2]; BA 0.1 mg/l, sucrose 30 g/l, NAA 0.05 mg/l, 17 roots cut off",17
same,Enlarging ratio (diameter of root tuber vs root at start = 1),"[2]; BA 0.1 mg/l, sucrose 30 g/l, NAA 0.05 mg/l",2.3
same,Number of grown root tubers,"[2]; BA 0.1 mg/l, sucrose 50 g/l, NAA 0.05 mg/l, 17 roots cut off",16
same,Enlarging ratio (diameter of root tuber vs root at start = 1),"[2]; BA 0.1 mg/l, sucrose 50 g/l, NAA 0.05 mg/l",3.2
same,Number of grown root tubers,"[2]; BA 0.1 mg/l, sucrose 70 g/l, NAA 0.05 mg/l, 21 roots cut off",21
same,Enlarging ratio (diameter of root tuber vs root at start = 1),"[2]; BA 0.1 mg/l, sucrose 70 g/l, NAA 0.05 mg/l",3.8
same,Number of grown root tubers,"[2]; BA 0.1 mg/l, sucrose 90 g/l, NAA 0.05 mg/l, 18 roots cut off",18
same,Enlarging ratio (diameter of root tuber vs root at start = 1),"[2]; BA 0.1 mg/l, sucrose 90 g/l, NAA 0.05 mg/l",5.0
same,Number of grown root tubers,"[2]; BA 0.5 mg/l, sucrose 30 g/l, NAA 0.05 mg/l, 20 roots cut off",20
same,Enlarging ratio (diameter of root tuber vs root at start = 1),"[2]; BA 0.5 mg/l, sucrose 30 g/l, NAA 0.05 mg/l",6.6
same,Number of grown root tubers,"[2]; BA 0.5 mg/l, sucrose 50 g/l, NAA 0.05 mg/l, 21 roots cut off",20
same,Enlarging ratio (diameter of root tuber vs root at start = 1),"[2]; BA 0.5 mg/l, sucrose 50 g/l, NAA 0.05 mg/l",9.5
same,Number of grown root tubers,"[2]; BA 0.5 mg/l, sucrose 70 g/l, NAA 0.05 mg/l, 25 roots cut off",25
same,Enlarging ratio (diameter of root tuber vs root at start = 1),"[2]; BA 0.5 mg/l, sucrose 70 g/l, NAA 0.05 mg/l",7.2
same,Number of grown root tubers,"[2]; BA 0.5 mg/l, sucrose 90 g/l, NAA 0.05 mg/l, 16 roots cut off",16
same,Enlarging ratio (diameter of root tuber vs root at start = 1),"[2]; BA 0.5 mg/l, sucrose 90 g/l, NAA 0.05 mg/l",6.0
same,Number of grown root tubers,"[2]; BA 1.0 mg/l, sucrose 50 g/l, NAA 0.05 mg/l, 24 roots cut off",23
same,Enlarging ratio (diameter of root tuber vs root at start = 1),"[2]; BA 1.0 mg/l, sucrose 50 g/l, NAA 0.05 mg/l",6.3
same,Number of grown root tubers,"[2]; BA 1.0 mg/l, sucrose 70 g/l, NAA 0.05 mg/l, 17 roots cut off",17
same,Enlarging ratio (diameter of root tuber vs root at start = 1),"[2]; BA 1.0 mg/l, sucrose 70 g/l, NAA 0.05 mg/l",5.4
same,Number of grown root tubers,"[2]; BA 1.0 mg/l, sucrose 90 g/l, NAA 0.05 mg/l, 4 roots cut off",3
same,Enlarging ratio (diameter of root tuber vs root at start = 1),"[2]; BA 1.0 mg/l, sucrose 90 g/l, NAA 0.05 mg/l",3.8
same,Number of large root tubers (diameter of 1 mm or more),[2]; [3],4
same,Total number of root tubers,[2]; [3],18
same,Number of large root tubers (diameter of 1 mm or more),[2]; [4],5
same,Total number of root tubers,[2]; [4],15
same,Number of large root tubers (diameter of 1 mm or more),[2]; [5],5
same,Total number of root tubers,[2]; [5],15
same,Number of large root tubers (diameter of 1 mm or more),[2]; [6],2
same,Total number of root tubers,[2]; [6],6
same,Number of large root tubers (diameter of 1 mm or more),[2]; [7],3
same,Total number of root tubers,[2]; [7],5

# From patent US20050229276A1, “Method of producing cyclamen root tuber and method of proliferating cyclamen using the same” (Tokyo University of Agricultural, priority 2002, published 2005)
